Data on 59 molecules can be found in the METLIN SMRT retention time set (Domingo-Almenara et al. 2019).

This data set in a line: gradient 5% acetonitrile 3 min, to 50% in 2 min, to 85% in 15 min, held 3 min, 100 µL/min. As to conditions: column: Zorbax Extend-C18 2.1 x 50 mm; eluents: water / acetonitrile, 0.1% formic acid. The method, boiled down:
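Pure standards were analyzed in mixtures of ~100 molecules using HPLC coupled to a quadrupole time-of-flight mass spectrometer, in both positive and negative ionization mode. Separation used a Zorbax Extend-C18 column (2.1 × 50 mm, 1.8 μm) at 100 μL/min, with water and acetonitrile each containing 0.1% formic acid. Dead and dwell volumes were 40 μL and 900 μL, and data were collected over 3 months. Retention time was read from computationally picked adduct peaks, each inspected manually.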
Regarding `Cc1nsc2ncc(C(=O)N3CCOCC3)c(N3CCC(C(=O)Nc4cccc(Cl)c4)CC3)c12`, the RP-LC retention time was 848 s.

Molecule `CSc1ccc(-c2noc(-c3nn(-c4cccc(Br)c4)ccc3=O)n2)cc1` registered an RP-LC retention time of 988 s.

In the case of `CCN(CC)C(=O)Cn1nc(-c2nc(-c3ccc(F)cc3)no2)ccc1=O`, the RP-LC retention time worked out at 861 s.

The molecule `O=C(NCCN1CCOCC1)c1ccc(CS(=O)Cc2cccc(Cl)c2)o1` (centres undefined) had an RP-LC retention time of 601 s.

Molecule `COc1cccc(-c2nc3cnccn3c2NCCC(=O)NC2CCCC2)c1` displayed an RP-LC retention time of 675 s.

`O=C(NCc1ccccc1F)c1ccc2c(c1)CN(Cc1cccs1)CCO2` returned an RP-LC retention time of 759 s.

For `COc1ccc(S(=O)(=O)N2CCCC(C(=O)NCc3ccncc3)C2)cc1OC` (centres undefined), the RP-LC retention time was 591 s.

Molecule `O=C(c1ccc2[nH]ccc2c1)N1C[C@@H]2C[C@H]1C[C@@H]2NS(=O)(=O)c1ccccc1` showed an RP-LC retention time of 730 s.

Turning to `Cc1cc(C2CCCN2C(=O)c2c(F)cccc2Cl)on1` (centres undefined), the RP-LC retention time is 773 s.

`CCNC(=O)Cc1nnc(-c2ccc(OC)cc2)o1` had an RP-LC retention time of 634 s.

`O=C(CN1C(=O)CCc2cc(Br)ccc21)Nc1ccc2c(c1)OCCO2`: the RP-LC retention time is 912 s.

Turning to `Cc1cc(C)cc(S(=O)(=O)N2CCc3c(c(-c4nnc(-c5ccc(F)cc5)o4)nn3C)C2)c1`, the RP-LC retention time turned out to be 812 s.

Molecule `CCOc1ccccc1-n1ccn(Cc2nc(-c3ccc(Cl)cc3)no2)c(=O)c1=O` showed an RP-LC retention time of 938 s.

Take `CSCc1noc(Cn2ccc3ccn(CCN(C)C)c3c2=O)n1`: the RP-LC retention time turned out to be 597 s.

Regarding `O=C1COc2cc(S(=O)(=O)N3CCC(C(=O)N4CCOCC4)CC3)c(Cl)cc2N1`, the RP-LC retention time came to 659 s.

As to `CCC(C(=O)Nc1ccc2c(c1)OCCO2)n1cnc2nc3c(cc2c1=O)CCCC3` (centres undefined), the RP-LC retention time was determined as 763 s.

For `Cc1ccc(NC(=O)Cn2cccc2-c2nnc(C3CCC3)o2)c(C)c1`, the RP-LC retention time was found to be 963 s.

Molecule `Cc1ccc(-c2cc3c4nnc(CCC(=O)NC5CCCCCC5)n4ccn3n2)cc1C` showed an RP-LC retention time of 587 s.

`CCN1C(=O)c2cccnc2Sc2cc(NC(=O)c3ccsc3)ccc21` displayed an RP-LC retention time of 796 s.

Molecule `Cc1sc(-c2nnc(C3CC3)o2)cc1NC(=O)Cc1ccccc1F` returned an RP-LC retention time of 944 s.

Consider `Cc1cccc(C2CC(=O)c3cnc(N4CCN(c5ccccn5)CC4)nc3C2)c1` (centres undefined), for which the RP-LC retention time turned out to be 737 s.

For the molecule `CCCN(CCC)S(=O)(=O)c1cccc(-c2cn3cccc(C)c3n2)c1`, the RP-LC retention time worked out at 774 s.

Molecule `CCC(=O)N1CCc2c(sc3ncnc(NCc4ccccc4)c23)C1` registered an RP-LC retention time of 790 s.

The molecule `Cc1ccc(C)c(NC(=O)Cn2cnc3c(sc4nc(-c5ccccc5)ccc43)c2=O)c1` registered an RP-LC retention time of 1050 s.

`Cc1ccc(S(=O)(=O)N2CCCC(CCC(=O)O)C2)cc1` (centres undefined) came in with an RP-LC retention time of 812 s.

Consider `Cc1ccc(-n2nc(C)c3c(C)cc(OCC(=O)Nc4ccc5c(c4)OCO5)nc32)cc1`, for which the RP-LC retention time was determined as 1020 s.

The molecule `O=C(C1CC1)N1CCCCC1c1nc(-c2cnccn2)no1` (centres undefined) yielded an RP-LC retention time of 638 s.

On to `Cc1cc(N2CCOCC2)n2nc(CN3CCN(c4ccccc4C)CC3)nc2n1`, for which the RP-LC retention time worked out at 636 s.

Consider `CCc1ccc(NC(=O)N2CCC(c3nc4cccnc4n3C)C2)cc1` (centres undefined), for which the RP-LC retention time turned out to be 711 s.

`Cc1ccc(-c2csc(NC(=O)CC(C)C)n2)c(C)c1` displayed an RP-LC retention time of 1090 s.

Molecule `CCOc1nccnc1N1CCC(N(C)C(=O)Cc2c(C)noc2C)C1` (centres undefined) had an RP-LC retention time of 672 s.

On to `Cc1ccc(C)c(Sc2ccc(N3CCC(C(=O)NC4CC4)CC3)nn2)c1`, for which the RP-LC retention time came out at 713 s.

Molecule `Cc1ccc(-c2nnc(Cc3nc(-c4ccccc4Cl)no3)o2)cc1F` had an RP-LC retention time of 1110 s.

`O=C(CC1CCOC2(CCN(Cc3cccs3)CC2)C1)NC1CC1` (centres undefined) had an RP-LC retention time of 578 s.

`CNC(=O)c1cc2c(cn1)[nH]c1ccccc12` returned an RP-LC retention time of 706 s.

On to `O=C(N[C@H]1C[C@@H]2C[C@H]1CN2C(=O)c1ccc(F)c(Cl)c1)c1ccccc1`, for which the RP-LC retention time was found to be 772 s.

`O=C(C1CC(=O)N(C2CCCCCC2)C1)N1CCCN(c2ccc(=O)n(-c3ccccc3)n2)CC1` (centres undefined) displayed an RP-LC retention time of 740 s.

`Cc1ccc(C(=O)CC2(O)C(=O)Nc3ccc(C)cc32)cc1` (centres undefined) returned an RP-LC retention time of 755 s.

Consider `Cc1ccc(N2CC(c3noc(-c4cccc(Cl)c4)n3)CC2=O)cc1` (centres undefined), for which the RP-LC retention time was 1090 s.

The molecule `O=C(Nc1ccc2c(c1)OCCO2)N1CCC2(CCCCO2)CC1` showed an RP-LC retention time of 712 s.

In turn, `CN(c1nccn2c(=O)n(CC(=O)Nc3ccc(F)cc3F)nc12)C1CCCCC1` came in with an RP-LC retention time of 902 s.

Molecule `CS(=O)(=O)Nc1ccc2nc(S(C)(=O)=O)sc2c1` gave an RP-LC retention time of 661 s.

In turn, `O=C(CCCS(=O)(=O)Cc1ccccc1)NCc1ccccc1` displayed an RP-LC retention time of 694 s.

Turning to `CC(C(=O)Nc1nc2ccc(S(C)(=O)=O)cc2s1)n1nnc2ccccc2c1=O` (centres undefined), the RP-LC retention time turned out to be 706 s.

`CN(Cc1ccccc1)c1ccc(-c2noc(CN3CCC4(CC3)OCCO4)n2)cn1` yielded an RP-LC retention time of 745 s.

For `COc1ccc(OC)c(S(=O)(=O)N2CCC(N3C[C@H](OC)[C@@H]3c3cccnc3)CC2)c1`, the RP-LC retention time was found to be 619 s.

As to `Cc1nn(-c2ccc(N3CCCCC3)nn2)c(C)c1CCC(=O)NCCc1ccco1`, the RP-LC retention time is 660 s.

Molecule `Cc1ccc2nc(-c3ccc(N(C)C)cc3)c(Nc3ccccc3C)n2c1` came in with an RP-LC retention time of 812 s.

Molecule `Cc1ccc(C(=O)N2CCCC2c2nc(-c3ccc(F)cc3F)no2)s1` (centres undefined) registered an RP-LC retention time of 1010 s.

Regarding `Cc1ccc(Cl)cc1N1CCN(c2ccc3cc(S(=O)(=O)N4CCCC4)ccc3n2)CC1`, the RP-LC retention time worked out at 1240 s.

Turning to `COC[C@@H]1CN(S(=O)(=O)c2ccc(F)cc2)C[C@H]1c1nc(C)no1`, the RP-LC retention time was determined as 858 s.

For `O=C(C1=CN(c2cccc(Br)c2)c2ccccc2S1(=O)=O)N1CCCC1`, the RP-LC retention time was 819 s.

For the molecule `CN(C)S(=O)(=O)c1ccc(-c2nnc(C(=O)NC3CCN(Cc4ccccc4)CC3)o2)cc1`, the RP-LC retention time came out at 754 s.

`CO[C@H]1C(=O)N(C(C)C)[C@H]1C1CCN(S(=O)(=O)Cc2ccccc2F)CC1` had an RP-LC retention time of 831 s.

As for `CCn1nccc1-c1cccc(-c2noc(-c3cccs3)n2)c1`, the RP-LC retention time is 1130 s.

`O=S(=O)(c1cc(F)ccc1F)N1CCC(c2noc(COCC3CC3)n2)CC1` came in with an RP-LC retention time of 1000 s.

`O=C(NCCc1ccccc1)Nc1cnc2c(c1)CCC2` returned an RP-LC retention time of 536 s.

Molecule `Cc1nn(C)c(C)c1CCC(=O)N1CCN(c2ncccn2)CC1` showed an RP-LC retention time of 564 s.

On to `COc1ccccc1-c1nnc(-c2cc(S(=O)(=O)N3CCCC3)ccc2Cl)o1`, for which the RP-LC retention time amounted to 951 s.
